In patent US7446199B2, “Compositions useful as inhibitors of protein kinases” (Vertex Pharmaceuticals Incorporated, priority 2003, dated 2008) one finds Ki data, which are given here for 25 compounds.

SMILES strings stand for the structures.

The test deals with GSK-3β, (AA 1-420) (Homo sapiens, UniProt P49841). As to the kind of experiment: GSK-3 inhibition assay, coupled enzyme system. Type of test: biochemical. The settings on record: 20 μM ATP, 300 μM peptide, 20 nM GSK-3b, 30° C.; read-out: Ki values (GSK3). As to the method:
Compounds of the present invention were screened for their ability to inhibit GSK-3β, (AA 1-420) activity using a standard coupled enzyme system (Fox et al., Protein Sci. 1998, 7, 2249). Reactions were carried out in a solution containing 100 mM HEPES (pH 7.5), 10 mM MgCl2, 25 mM NaCl, 300 μM NADH, 1 mM DTT and 1.5% DMSO. Final substrate concentrations in the assay were 20 μM ATP (Sigma Chemicals, St Louis, Mo.) and 300 μM peptide (American Peptide, Sunnyvale, Calif.). Reactions were carried out at 30° C. and 20 nM GSK-3b. Final concentrations of the components of the coupled enzyme system were 2.5 mM phosphoenolpyruvate, 300 μM NADH, 30 μg/ml pyruvate kinase and 10 μg/ml lactate dehydrogenase.
An assay stock buffer solution was prepared containing all of the reagents listed above with the exception of ATP and the test compound of the present invention. The assay stock buffer solution (175 μl) was incubated in a 96 well plate with 5 μl of the test compound of the present invention at final concentrations spanning 0.002 μM to 30 μM at 30° C. for 10 min. Typically, a 12 point titration was conducted by preparing serial dilutions (from 10 mM compound stocks) with DMSO of the test compounds of the present invention in daughter plates. The reaction was initiated by the addition of 20 μl of ATP (final concentration 20 μM). Rates of reaction were obtained using a Molecular Devices Spectramax plate reader (Sunnyvale, Calif.) over 10 min at 30° C. The Ki values were determined from the rate data as a function of inhibitor concentration.

Chain of GSK-3β, (AA 1-420) (P49841 whole entry, the tested form may be a part): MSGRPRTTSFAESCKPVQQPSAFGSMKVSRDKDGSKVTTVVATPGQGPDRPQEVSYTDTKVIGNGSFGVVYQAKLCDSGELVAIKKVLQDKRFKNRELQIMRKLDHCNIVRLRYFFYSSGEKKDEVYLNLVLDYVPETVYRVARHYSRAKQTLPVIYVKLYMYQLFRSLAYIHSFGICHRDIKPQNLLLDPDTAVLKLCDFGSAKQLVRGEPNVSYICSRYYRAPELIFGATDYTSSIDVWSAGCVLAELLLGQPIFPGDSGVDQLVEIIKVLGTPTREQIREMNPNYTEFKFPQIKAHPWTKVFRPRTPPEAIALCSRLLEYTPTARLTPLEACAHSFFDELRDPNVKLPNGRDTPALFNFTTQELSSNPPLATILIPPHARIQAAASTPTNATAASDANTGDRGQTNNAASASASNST

As a reminder, the Ki is the equilibrium dissociation constant of an inhibitor or competing ligand from its target. Regarding `Fc1ccc(-c2cnoc2-c2c[nH]c3ncccc23)c(F)c1F` [Compound 40, 3-[4-(2,3,4-Trifluoro-phenyl)-isoxazol-5-yl]-1H-pyrrolo [2,3-b]pyridine], the Ki fell in the range of 1 to 12.5 µM. Next, `Fc1cccc(-n2cnnc2-c2c[nH]c3ncc(-c4ccc(N5CCC[C@H]5CN5CCCC5)nc4)cc23)c1F` [Compound 115, 3-[4-(2,3-Difluoro-phenyl)-4H-[1,2,4]triazol-3-yl]-5-[6-(2-pyrrolidin-1-ylmethyl-pyrrolidin-1-yl)-pyridin-3-yl]-1H-pyrrolo[2,3-b]pyridine]: 0.2 to 1 µM.

On to `Fc1cccc(-c2cnoc2-c2c[nH]c3ncc(C4CCNCC4)cc23)c1F` [Compound 62, 3-[4-(2,3-Difluoro-phenyl)-isoxazol-5-yl]-5-piperidin-4-yl-1H-pyrrolo[2,3-b]pyridine], for which the Ki was 0.2 to 1 µM. Next, `Fc1cccc(-n2cnnc2-c2c[nH]c3ncc(-c4ccncc4)cc23)c1F` [Compound 114, 3-[4-(2,3-Difluoro-phenyl)-4H-[1,2,4]triazol-3-yl]-5-pyridin-4-yl-1H-pyrrolo[2,3-b]pyridine]: less than 0.2 µM; `CN(C)Cc1ccc(-c2cnc3[nH]cc(-c4oncc4-c4cccc(F)c4F)c3c2)nc1` [Compound 84, (6-{3-[4-(2,3-Difluoro-phenyl)-isoxazol-5-yl]-1H-pyrrolo[2,3-b]pyridin-5-yl}-pyridin-3-ylmethyl)-dimethyl-amine]: 0.2 to 1 µM; `CCN1CCC(c2cnc3[nH]cc(-c4oncc4-c4cccc(F)c4F)c3c2)CC1` [Compound 72, 3-[4-(2,3-Difluoro-phenyl)-isoxazol-5-yl]-5-(1-ethyl-piperidin-4-yl)-1H-pyrrolo[2,3-b]pyridine]: less than 0.2 µM.

With `COc1ccnc(-c2cnc3[nH]cc(-c4oncc4-c4cccc(F)c4F)c3c2)c1` [Compound 78, 3-[4-(2,3-Difluoro-phenyl)-isoxazol-5-yl]-5-(4-methoxy-pyridin-2-yl)-1H-pyrrolo[2,3-b]pyridine], the Ki was in the range of 0.2 to 1 µM. Next, `CC(=O)N1CCC(c2cnc3[nH]cc(-c4oncc4-c4cccc(F)c4F)c3c2)CC1` [Compound 63, 1-(4-{3-[4-(2,3-Difluoro-phenyl)-isoxazol-5-yl]-1H-pyrrolo[2,3-b]pyridin-5-yl}-piperidin-1-yl)-ethanone]: less than 0.2 µM.

As for `CN(C)c1cccc(-c2cnc3[nH]cc(-c4oncc4-c4cccc(F)c4F)c3c2)c1` [Compound 61, (3-{3-[4-(2,3-Difluoro-phenyl)-isoxazol-5-yl]-1H-pyrrolo[2,3-b]pyridin-5-yl}-phenyl)-dimethyl-amine], the Ki is 0.2 to 1 µM. Consider `O=c1ccc(-c2cnc3[nH]cc(-c4oncc4-c4cccc(F)c4F)c3c2)c[nH]1` [Compound 67, 5-{3-[4-(2,3-Difluoro-phenyl)-isoxazol-5-yl]-1H-pyrrolo [2,3-b]pyridin-5-yl}-1H-pyridin-2-one], for which the Ki is less than 0.2 µM.

Take `CN1CCC(c2cnc3[nH]cc(-c4oncc4-c4cccc(F)c4F)c3c2)CC1` [Compound 60, 3-[4-(2,3-Difluoro-phenyl)-isoxazol-5-yl]-5-(1-methyl-piperidin-4-yl)-1H-pyrrolo[2,3-b]pyridine]: the Ki lay in the range of 0.2 to 1 µM.

As to `OC1CCN(c2ccc(-c3cnc4[nH]cc(-c5nncn5-c5cccc(F)c5F)c4c3)cn2)CC1` [Compound 116, 5′-{3-[4-(2,3-Difluoro-phenyl)-4H-[1,2,4]triazol-3-yl]-1H-pyrrolo[2,3-b]pyridin-5-yl}-3,4,5,6-tetrahydro-2H-[1,2′]bi-pyridinyl-4-ol], the Ki lay in the range of 0.2 to 1 µM. The same measure for `Fc1cccc(-n2cnnc2-c2c[nH]c3ncc(-c4ccc(CN5CCOCC5)cc4)cc23)c1F` [Compound 109, 3-[4-(2,3-Difluoro-phenyl)-4H-[1,2,4]triazol-3-yl]-5-(4-morpholin-4-ylmethyl-phenyl)-1H-pyrrolo[2,3-b]pyridine]: less than 0.2 µM.

`Fc1cccc(Cc2cnoc2-c2c[nH]c3ncccc23)c1F` [Compound 36, 3-[4-(2,3-Difluoro-benzyl)-isoxazol-5-yl]-1H-pyrrolo[2,3-b]pyridine]: the Ki lay within 0.2 to 1 µM. For the compound `CN1CCN(c2ccc(-c3cnc4[nH]cc(-c5nncn5-c5cccc(F)c5F)c4c3)cn2)CC1` [Compound 112], the Ki lay within 0.2 to 1 µM. Next, `CNc1ccc2c(-c3oncc3-c3cccc(F)c3F)c[nH]c2n1` [Compound 102, {3-[4-(2,3-Difluoro-phenyl)-isoxazol-5-yl]-1H-pyrrolo[2,3-b]pyridin-6-yl}-methyl-amine]: 1 to 12.5 µM. `CS(=O)(=O)n1ccc2cc(-c3cnc4[nH]cc(-c5oncc5-c5cccc(F)c5F)c4c3)cnc21` [Compound 97, 3′-[4-(2,3-Difluoro-phenyl)-isoxazol-5-yl]-1-methanesulfonyl-1H, 1′H-[5,5′]bi[pyrrolo[2,3-b]pyridinyl]]: the Ki is less than 0.2 µM. Next, `Fc1cccc(-c2cnoc2-c2c[nH]c3ncc(-c4cncnc4)cc23)c1F` [Compound 85, 3-[4-(2,3-Difluoro-phenyl)-isoxazol-5-yl]-5-pyrimidin-5-yl-1H-pyrrolo[2,3-b]pyridine]: 1 to 12.5 µM; `CN(C)Cc1cc(Cl)nc(-c2cnc3[nH]cc(-c4oncc4-c4cccc(F)c4F)c3c2)c1` [Compound 81, (2-Chloro-6-{3-[4-(2,3-difluoro-phenyl)-isoxazol-5-yl]-1H-pyrrolo[2,3-b]pyridin-5-yl}-pyridin-4-ylmethyl)-dimethyl-amine]: 0.2 to 1 µM. Next, `CN1CCCN(c2ccc(-c3cnc4[nH]cc(-c5nncn5-c5cccc(F)c5F)c4c3)cn2)CC1` [Compound 117, 3-[4-(2,3-Difluoro-phenyl)-4H-[1,2,4]triazol-3-yl]-5-[6-(4-methyl-[1,4]diazepan-1-yl)-pyridin-3-yl]-1H-pyrrolo [2,3-b]-pyridine]: 0.2 to 1 µM; `CN(C)C(=O)c1ccc(-c2cnc3[nH]cc(-c4oncc4-c4cccc(F)c4F)c3c2)nc1` [Compound 79, 6-{3-[4-(2,3-Difluoro-phenyl)-isoxazol-5-yl]-1H-pyrrolo [2,3-b]pyridin-5-yl}-N,N-dimethyl-nicotinamide]: 0.2 to 1 µM. The same measure for `Fc1cccc(-c2cnoc2-c2c[nH]c3ncc(/C=C/n4cncn4)cc23)c1F` [Compound 133, 3-[4-(2,3-Difluoro-phenyl)-isoxazol-5-yl]-5-(2-[1,2,4]triazol-1-yl-vinyl)-1H-pyrrolo[2,3-b]pyridine]: less than 0.2 µM; for `C=Cc1cnc2[nH]cc(-c3oncc3-c3cccc(F)c3F)c2c1` [Compound 66, 3-[4-(2,3-Difluoro-phenyl)-isoxazol-5-yl]-5-vinyl-1H-pyrrolo[2,3-b]pyridine]: 0.2 to 1 µM; for `Fc1cccc(-c2cnoc2-c2c[nH]c3ncc(C4=CCC(NCc5ccccc5)CC4)cc23)c1F` (stereo not shown) [Compound 136, Benzyl-(4-{3-[4-(2,3-difluoro-phenyl)-isoxazol-5-yl]-1H-pyrrolo[2,3-b]pyridin-5-yl}-cyclohex-3-enyl)-amine]: 0.2 to 1 µM. On to `Cc1noc(-c2c[nH]c3ncc(-c4ccc(N5CCN(C)CC5)cc4)cc23)c1-c1cccc(F)c1F` [Compound 135, 3-[4-(2,3-Difluoro-phenyl)-3-methyl-isoxazol-5-yl]-5-[4-(4-methyl-piperazin-1-yl)-phenyl]-1H-pyrrolo[2,3-b]pyridine], for which the Ki was less than 0.2 µM.
